In PubChem BioAssay (NCI):
Several values for one entry are separate records, joined by “and”; a condition that tells them apart may be missing. Equal values may be shown once.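 Grown in 96-well plates, cells were treated for 48 hours with each compound at five concentrations. Insufficient inhibition: endpoint recorded as highest concentration tested. The concentration for 50% growth inhibition is given as GI50. TGI is the concentration that stops growth completely.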

Legend:
Test in all cases: growth of human tumour cells (NCI), 48 h
786-0 renal = system: 786-0 renal
LOX IMVI melanoma = system: LOX IMVI melanoma
NCI-H522 lung = system: NCI-H522 lung
RXF 393 renal = system: RXF 393 renal
SF-539 CNS = system: SF-539 CNS
SK-MEL-28 melanoma = system: SK-MEL-28 melanoma
SN12C renal = system: SN12C renal
SR leukemia = system: SR leukemia
A498 renal = system: A498 renal
SNB-75 CNS = system: SNB-75 CNS

SMILES | TGI (786-0 renal) [µM] | TGI (LOX IMVI melanoma) [µM] | TGI (NCI-H522 lung) [µM] | TGI (RXF 393 renal) [µM] | TGI (SF-539 CNS) | TGI (SK-MEL-28 melanoma) | TGI (SN12C renal) [µM] | TGI (SR leukemia) [µM] | TGI (A498 renal) [µM] | TGI (SNB-75 CNS) [µM] | GI50 (786-0 renal) [µM] | GI50 (A498 renal) [µM] | GI50 (LOX IMVI melanoma) [µM] | GI50 (NCI-H522 lung) [µM] | GI50 (SF-539 CNS) | GI50 (SK-MEL-28 melanoma) | GI50 (SN12C renal) [µM] | GI50 (SNB-75 CNS) [µM] | GI50 (SR leukemia) [µM] | GI50 (RXF 393 renal) [µM]
CCOc1ccccc1NC(=O)CCc1nc(=S)[nH][nH]1 | > 100 | > 100 | > 100 | > 100 | > 100 µM | > 100 µM | > 100 | > 100 | – | – | – | – | – | – | – | – | – | – | – | –
Cc1c2cc[n+](C)cc2c(C)c2c1[nH]c1ccc(O)c(OCC(F)(F)F)c12 | 9.35 | 46.5 | 3.55 | – | 9.72 µM | 16 µM | 4.11 | – | 32 | 1.35 | – | – | – | – | – | – | – | – | – | –
COC(=O)c1nc(N)[nH]c(=O)c1CCCCCc1c(C(=O)OC)nc(N)[nH]c1=O | > 50 | > 50 | > 50 | > 50 | > 50 µM | > 50 µM | > 50 | – | > 50 | > 50 | – | – | – | – | – | – | – | – | – | –
O=C1CCC(O)=C1O | > 100 | > 100 | > 100 | > 100 | > 100 µM | > 100 µM | > 100 | – | > 100 | > 100 | – | – | – | – | – | – | – | – | – | –
CC(=O)O[C@@H]1C2C(=O)OC(=O)C2C2CCC[C@]23O[C@H]13 (stereo partly specified) | > 100 | – | > 100 | > 100 | > 100 µM | > 100 µM | > 100 | > 100 | > 100 | > 100 | – | – | – | – | – | – | – | – | – | –
N#CC(NNC(=O)c1ccccc1O)c1cccc(O)c1 (stereo unspecified) | > 100 | > 100 | 98.5 | 85.3 | 18.5 µM | > 100 µM | > 100 | > 100 | – | > 100 | – | – | – | – | – | – | – | – | – | –
Cc1c(Cl)cccc1NC(=O)CC1C(=O)Nc2ccccc2S1(=O)=O (stereo unspecified) | 32.4 | 29.1 | – | 28.9 | 28.7 µM | 38.6 µM | 31.9 | 30.3 | 28.9 | 32.5 | – | – | – | – | – | – | – | – | – | –
COc1ccc(/C=C2\C(=O)N(C(=O)Cc3ccccc3)N=C2C)cc1OC | > 100 | > 100 | > 100 | – | > 100 µM | > 100 µM | > 100 | > 100 | – | > 100 | – | – | – | – | – | – | – | – | – | –
C[C@]12CC[C@@H]3c4ccc(O)cc4C(O)C[C@H]3[C@@H]1CCC2=O (stereo partly specified) | > 100 | > 100 | > 100 | – | > 100 µM | > 100 µM | > 100 | > 100 | > 100 | > 100 | > 100 | 76.2 | > 100 | 60.8 | > 100 µM | > 100 µM | > 100 | 26.9 | > 100 | –
CCOC(=O)c1cc(/C=C/C(C)=C/C(=O)OC)n(C)c1C | > 100 | > 100 | > 100 | – | > 100 µM | – | > 100 | – | > 100 | – | – | – | – | – | – | – | – | – | – | –
BrC1(Br)C2/C=C\CCCCC21 (stereo unspecified) | > 100 | > 100 | > 100 | > 100 | > 100 µM | > 100 µM | > 100 | > 100 | > 100 | – | – | – | – | – | – | – | – | – | – | –
Oc1ccccc1-c1nc2c3ccccc3c3ccccc3c2[nH]1 | 13.6 | 12 | 10.3 | 18.8 | 21.2 µM | 27.4 µM | 22.6 | – | 24.6 | 15.2 | 4.67 | 12.2 | 3.48 | 3.07 | 9.28 µM | 14.4 µM | 10.7 | 2.53 | – | 6.23
c1cc(CNC2C3CCC(C3)C2c2c[nH]c3ccccc23)cc(CNC2C3CCC(C3)C2c2c[nH]c3ccccc23)c1 (stereo unspecified) | 27.3 | – | 2.76 | – | 3.39 µM and 3.17 µM | 2.3 µM and 1.51 µM | 31.5 | 0.773 | – | 1.21 | 14.2 | – | – | – | 1.89 µM and 1.74 µM | 1.01 µM and 0.343 µM | 14.5 | – | – | –
CC(=O)OC1[C@H]2c3cc4c(cc3CN3CCC(=C[C@@H]1O)C23)OCO4 (stereo partly specified) | > 100 | > 100 | > 100 | > 100 | > 100 µM | > 100 µM | > 100 | > 100 | – | > 100 | – | – | – | – | – | – | – | – | – | –
Fc1cccc(Cl)c1/C=N\N=C1c2ccccc2-c2ccccc21 | > 100 | > 100 | > 100 | > 100 | > 100 µM | > 100 µM | > 100 | > 100 | > 100 | – | – | – | – | – | – | – | – | – | – | –
COc1cc(Br)c(C=Nc2cccc3ccc(OS(=O)(=O)c4cccc([N+](=O)[O-])c4)cc23)cc1OC | > 100 | > 100 | > 100 | 43.5 | 39.5 µM | > 100 µM | > 100 | > 100 | > 100 | – | – | – | – | – | – | – | – | – | – | –
Cc1ccc(S(=O)(=O)N=Nc2c(O)[nH]c3c(Cl)cc(Cl)cc23)cc1 | > 100 | > 100 | – | > 100 | > 100 µM | > 100 µM | > 100 | > 100 | > 100 | – | – | – | – | – | – | – | – | – | – | –
CCN1CSC(=S)N(CC)C1 | > 100 | – | > 100 | > 100 | 76 µM | > 100 µM | > 100 | – | > 100 | > 100 | – | – | – | – | – | – | – | – | – | –
COc1ccc(CN2c3ccccc3CCc3ccccc32)cc1F | > 100 | > 100 | > 100 | – | 0.958 µM | > 100 µM | > 100 | > 100 | > 100 | > 100 | 0.572 | 0.339 | 0.725 | 0.609 | 0.287 µM | 0.82 µM | 1.95 | 0.277 | 0.463 | –
CC1(C)C2CCC3(C2)CS(=O)(=O)N2OC231 (stereo unspecified) | 31.2 | 31.1 | 26.9 | – | 33.6 µM | 44.7 µM | 31.6 | > 100 | 44.5 | 36.5 | – | – | – | – | – | – | – | – | – | –
C[C-](O)O.O/C(=C\[C-](O)c1ccccc1)c1ccccc1.O/C(=C\[C-](O)c1ccccc1)c1ccccc1.[Nd+3] (stereo unspecified) | 32.7 | 17.7 | 28.9 | – | 25.5 µM | 44.5 µM | – | – | 43.1 | 6.35 | 9.65 | 11.7 | 4.28 | 3.59 | 5.5 µM | 12.7 µM | 5.99 | 1.77 | – | –
